The values below come from patent US6831190B1, “Guanidinomethyl cyclohexane carboxylic acid ester derivatives” (Teikoku Chemical Industries Co., Ltd., priority 1994, dated 2004).

The structures appear in SMILES notation.

In one experiment the test system is helicobacter pylori. Briefly: MIC of benexart hydrochloride, for reference. The class given is cell-based. Particulars: strain and medium not given. The method, then: For reference, the value of MIC of benexart hydrochloride was >100 µg/ml.
Experiment [1] concerns ethanol hydrochloride ulceration. Particulars: against an ethanol hydrochloride ulceration; cited from earlier work.
Experiment [2] relates to Helicobacter pylori No. 20. Briefly: MIC, agar plating dilution, clinical segregation strain. The class given is cell-based. To be noted: Strain 9: Helicobacter pylori No. 20. An outline of the steps: (§1)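 Agar plate dilution per Japanese Chemotherapy Society standard method, with compounds from DMSO solutions mixed into Brain Heart Infusion agar containing 0.1% cyclodextrin. Plates were read after 3 days at 37 °C under microaerobic conditions.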

Experiment [3] concerns Helicobacter pylori No. 2. Described as above. The class given is cell-based. Particulars: Strain 5: Helicobacter pylori No. 2. The essentials:
as §1

In experiment [4] the test system is Helicobacter pylori No. 19. Described as above. The class given is cell-based. To be noted: Strain 8: Helicobacter pylori No. 19. An outline of the steps: as §1
Experiment [5] has as its system Helicobacter pylori No. 3. The experiment is described as above. It is filed as cell-based. Particulars: Strain 6: Helicobacter pylori No. 3. An outline of the steps: as §1
Experiment [6] has as its system Helicobacter pylori No. 28. Described as above. Particulars: Strain 10: Helicobacter pylori No. 28. It is filed as cell-based. An outline of the steps: as §1
The test system of experiment [7] is Helicobacter pylori No. 4. The description is as above. Particulars: Strain 7: Helicobacter pylori No. 4. It is filed as cell-based. An outline of the steps: as §1
Experiment [8] relates to Helicobacter pylori No. 1. The description is as above. The class given is cell-based. To be noted: Strain 4: Helicobacter pylori No. 1. The essentials: as §1
For experiment [9], the system named is Escherichia coli NIH JC-2. Briefly: MIC, standard method of Japanese Chemotherapy Academy. It is filed as cell-based. To be noted: Objected Strain 3: Escherichia coli NIH JC-2. Here is the method: (§2) 1. Minimum Inhibitory Concentration (MIC) was measured in accordance with the standard method of Japanese Chemotherapy Academy (Chemotherapy, 29: 76-79, 1981).

For experiment [10], the system named is Helicobacter pylori ATCC 43504. Briefly: MIC, agar plating dilution (standard method of Japanese Chemotherapy Academy). It is filed as cell-based. Particulars: Objected Strain 1: Helicobacter pylori ATCC 43504. The essentials:
(§3)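 Agar dilution MIC followed the Japanese Chemotherapy Academy standard method, on Brain Heart Infusion agar with 0.1% cyclodextrin and compounds dissolved in DMSO. Plates were incubated microaerobically at 37 °C for three days.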

Experiment [11] concerns Helicobacter pylori ATCC 43629. The experiment is described as above. Particulars: Objected Strain 2: Helicobacter pylori ATCC 43629. It is filed as cell-based. The essentials:
as §3

For experiment [12], the system named is Staphylococcus aureus 209PJC. Briefly: MIC, standard method of Japanese Chemotherapy Academy. It is filed as cell-based. Particulars: Strain 11: Staphylococcus aureus 209PJC. The method, then: as §2
(§4) And MIC of the compounds of Example 3, 36, 8, 14, 17, 21, 41 and 45 were measured.

In experiment [13] the test system is Staphylococcus aureus ATCC 6538. The description is as above. The class given is cell-based. Particulars: Strain 12: Staphylococcus aureus ATCC 6538. The method, then:
as §2, §4

Experiment [14] relates to Bacillus subtilis ATCC 6633. Described as above. The class given is cell-based. The method, then:
as §2, §4

The subject of experiment [15] is Staphylococcus aureus No. 2 (MRSA). The experiment is described as above. It is filed as cell-based. Particulars: Strain 14: Staphylococcus aureus No. 2 (MRSA). Here is the method:
as §2, §4

The test system of experiment [16] is Helicobacter pylori ATCC 43504. Kind of experiment: MIC and MBC, liquid medium dilution. Particulars: Objected Strain 1: Helicobacter pylori ATCC 43504. It is filed as cell-based. The method, then: (§5) 2. Minimum Inhibitory Concentration (MIC) and Minimum Bacteria sterilizeory Concentration (MBC) against helicobacter pylon were measured in accordance with the liquid medium dilution. […] And […] of helicobacter pylon bacterial solution, which was cultured at 37° C. for three days and then diluted and prepared with the above mentioned liquid medium, was added to the mixtures to adjust the volume to 105 CFU/ml. […] After they were cultured by the same method as above mentioned, minimum concentration of the compounds which were not recognized the growth with the naked eyes were measured as the values of MBC.

Experiment [17] deals with Helicobacter pylori No. 2. Briefly: MIC and MBC, liquid medium dilution. The class given is cell-based. Particulars: Objected Strain 5: Helicobacter pylori No. 2. The method, then: as §5
Experiment [18] relates to Helicobacter pylori ATCC 43629. Kind of experiment: MIC and MBC, liquid medium dilution. Particulars: Objected Strain 2: Helicobacter pylori ATCC 43629. The class given is cell-based. The method, then:
as §5

In experiment [19] the test system is Helicobacter pylori No. 3. Briefly: MIC and MBC, liquid medium dilution. The class given is cell-based. Particulars: Objected Strain 6: Helicobacter pylori No. 3. Here is the method:
as §5

Experiment [20] deals with Helicobacter pylori No. 4. Kind of experiment: MIC and MBC, liquid medium dilution. The class given is cell-based. Particulars: Objected Strain 7: Helicobacter pylori No. 4. The method, then: as §5
The test system of experiment [21] is Helicobacter pylori No. 1. Briefly: MIC and MBC, liquid medium dilution. The class given is cell-based. To be noted: Objected Strain 4: Helicobacter pylori No. 1. The method, then: as §5

On to `Cl.NC(N)=NCC1CCC(C(=O)Oc2ccccc2C(=O)OCc2ccccc2)CC1` (centres unmarked) [benexart hydrochloride], for which the MIC in the experiment on helicobacter pylori was above 100 µg/mL.
`N=C(N)NCC1CCC(C(=O)Oc2ccc(CCC(=O)NO)cc2)CC1` (centres unmarked) [Formula (XIV)]: in [1], the ulceration restraining ratio is 88.7%.
Consider `Cc1ccc(COC(=O)c2ccc(-c3ccc(OC(=O)[C@H]4CC[C@H](CNC(=N)N)CC4)cc3)cc2)cc1.Cl` [Example 14, trans-4-guanidinomethyl cyclohexane carboxylic acid [4-[4-(4-methylbenzyloxy carbonyl)phenyl]phenylester].hydrochloride], for which the MIC in experiment [2] was found to be 0.39 µg/mL; in experiment [3], 0.39 µg/mL; in [4] it was 0.20 µg/mL; in experiment [5], 0.10 µg/mL; in [6], 0.39 µg/mL; in experiment [7], 0.20 µg/mL. Besides, the MIC in experiment [8] was 0.10 µg/mL; in [9], above 25 µg/mL; in [10], 0.39 µg/mL; in experiment [11] it was 0.39 µg/mL; in experiment [12], above 25 µg/mL; in [13] it was above 25 µg/mL. The minimum inhibitory concentration (MIC) in [14] (Strain 13: Bacillus subtilis ATCC 6633) was above 25 µg/mL; in experiment [15], above 25 µg/mL; in experiment [16] it was 0.20 µg/mL; in [17], 0.39 µg/mL; in experiment [18], 0.39 µg/mL; in [19], 0.10 µg/mL. Also, the MIC in experiment [20] was 0.39 µg/mL; in experiment [21] it was 0.20 µg/mL. In [14] (standard method of Japanese Chemotherapy Academy), this compound gave an MIC against bacillus subcillus ATCC 6633 above 25 µg/mL. The MBC in experiment [16] is 0.20 µg/mL; in [17], 1.56 µg/mL; in experiment [18] it was 1.56 µg/mL; in experiment [19] it was 0.10 µg/mL; in [20], 0.39 µg/mL; in experiment [21] it was 0.20 µg/mL.

In general, MIC refers to the lowest concentration that inhibits growth of the organism. Broadly, the MBC is the lowest tested concentration that kills the bacteria rather than only halting them. The low end stands for more potent killing, the high end for less potent killing.
